The source of these data is patent US5834415A, “Naphthalene boronic acids” (Novo Nordisk A/S, priority 1994, dated 1998).

The test system of one assay is subtilisin. Conditions: Keller et al, Biochem. Biophys. Res. Com. 176, 1991, pp. 401-405; cited from earlier work.
The test system of a further assay is proteolytic enzymes. Conditions: prior art; WO 92/19707 for acetamidobenzene boronic acid; cited from earlier work.
Another assay concerns the target T1, Alcalase (Bacillus licheniformis, UniProt P00780).
T1 construct: purchased Novo Nordisk A/S
T1 sequence (P00780 106-379): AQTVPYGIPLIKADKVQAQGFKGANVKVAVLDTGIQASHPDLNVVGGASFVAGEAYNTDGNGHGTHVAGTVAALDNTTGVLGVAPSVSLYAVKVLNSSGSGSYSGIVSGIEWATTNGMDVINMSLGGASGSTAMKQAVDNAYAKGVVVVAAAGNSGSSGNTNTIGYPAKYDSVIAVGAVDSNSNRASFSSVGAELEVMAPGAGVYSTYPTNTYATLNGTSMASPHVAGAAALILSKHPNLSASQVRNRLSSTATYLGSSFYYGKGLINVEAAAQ
Nature of the assay: Determination of Ki, inhibition of Alcalase. The format is biochemical. The source says:
(§1) c) Determination of Ki : The inhibition constant Ki may be determined by using standard methods, for reference see Keller et al, Biochem. Biophys. Res. Com. 176, 1991, pp.401-405; J. Bieth in Bayer-Symposium "Proteinase Inhibitors", pp. 463-469, Springer-Verlag, 1974 and Lone Kierstein Hansen in "Determination of Specific Activities of Selected Deterrent Proteases using Protease Activity, Molecular Weights, Kinetic Parameters and Inhibition Kinetics", PhD-report, Novo Nordisk A/S and University of Copenhagen, 1991.
(§2) The inhibition constant Ki for the inhibition of Alcalase and Savinase was determined using standard methods under the following conditions:
(§3) Substrate: Succinyl-Alanine-Alanine-Proline-Phenylalanine-paranitro-anilide=SAAPFpNA (Sigma S-7388).
(§4) Buffer: 0.1M Tris-HCl pH 8.6; 25° C.
(§5) Enzyme concentration in assay:
(§6) The initial rate of substrate hydrolysis was determined at nine substrate concentrations in the range of 0.01 to 2 mM using a Cobas Fara automated spectrophotometer. The kinetic parameters Vmax and Km were determined using ENZFITTER (a non-linear regression data analysis program). kcat was calculated from the equation Vmax =kcat ×[Eo ]. The concentration of active enzyme [Eo ] was determined by active site titration using tight-binding protein proteinase inhibitors. The inhibition constant Ki was calculated from plots of Km /kcat as a function of the concentration of inhibitor. The inhibitors were assumed to be 100% pure and the molar concentrations were determined using weighing numbers and molecular weights.

A further assay deals with T2, Savinase (Lederbergia lenta, UniProt P29600).
T2 construct: purchased Novo Nordisk A/S
T2 sequence (P29600 1-269): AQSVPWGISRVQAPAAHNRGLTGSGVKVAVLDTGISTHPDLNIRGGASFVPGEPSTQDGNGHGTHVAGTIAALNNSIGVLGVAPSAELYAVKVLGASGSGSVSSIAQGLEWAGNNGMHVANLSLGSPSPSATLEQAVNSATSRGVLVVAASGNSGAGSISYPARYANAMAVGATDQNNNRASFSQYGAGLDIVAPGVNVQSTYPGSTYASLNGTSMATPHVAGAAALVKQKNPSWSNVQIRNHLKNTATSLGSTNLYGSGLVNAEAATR
Nature of the assay: Determination of Ki, inhibition of Savinase. It is filed as biochemical, Bacillus.
Description: as §1, §2, §3, §4, §5, §6

The mark [1] stands for this setting: substrate SAAPFpNA, 0.1M Tris-HCl pH 8.6, 25° C., Alcalase 1×10^-10 - 3×10^-10 M, read-out: Ki Alcalase.
Where [2] appears, read: substrate SAAPFpNA, 0.1M Tris-HCl pH 8.6, 25° C., Savinase 1×10^-10 - 3×10^-10 M, read-out: Ki Savinase.

Like-named read-outs stand apart in the source and are kept apart here.

`CB(O)O` [methylboronic acid]: the “capacity as subtilisin inhibitor” value in the assay on subtilisin was “poorest inhibitor”.
Regarding acetamidobenzene boronic acid, the “inhibition of proteolytic enzymes” value in the assay with proteolytic enzymes was “superior inhibitor of proteolytic enzymes”.
With `OB(O)O` [Boric acid], the “inhibition of proteolytic enzymes” value in the assay on proteolytic enzymes is “reversibly inhibit proteolytic enzymes”. Moreover, the results for the Ki at Alcalase and on Savinase were 30000 µM and 20000 µM, respectively.
Consider `OB(O)c1cc(Cl)cc(Cl)c1` [3,5-dichlorophenylboronic acid], for which, in the assay on subtilisin, the “capacity as subtilisin inhibitor” value is listed as “particularly effective”.
Turning to `OB(O)c1ccc2ccccc2c1` [Naphthalene-2-boronic acid, Naphthalene-2-Boronic Acid], the Ki at Alcalase (setting [1]) is 400 µM; at Savinase (setting [2]) it was 300 µM.
For `OB(O)c1cccc2ccccc12` [Naphthalene-1-boronic acid, Naphthalene-1-Boronic Acid], in that order: 500 µM and 900 µM.
For `OB(O)c1ccc2cc(O)ccc2c1` [6-hydroxynaphthalene-2-boronic acid], the Ki on Alcalase (setting [1]) came to 500 µM; at Savinase (setting [2]), 600 µM.

A word on the Ki: it is the equilibrium dissociation constant of an inhibitor or competing ligand from its target.
